Assay results: US20080312435A1, “Imine Compound” (TAISHO PHARMACEUTICAL CO., LTD., priority 2004, published 2008)

Legend:
[1] = molecular target: T1, human CB2 receptor (Homo sapiens, UniProt P34972); assay: Human CB2 receptor binding inhibition test ([3H]CP-55,940, CHO membrane fractions); details: [3H]CP-55,940, membrane fractions of CHO cells stably expressing human CB2 receptor, 25° C., 2 hours; read-out: CB2 IC50 (Inhibition of binding to human CB2 receptor)
T1 construct: expressed in transfected cells
T1 sequence (P34972 whole entry): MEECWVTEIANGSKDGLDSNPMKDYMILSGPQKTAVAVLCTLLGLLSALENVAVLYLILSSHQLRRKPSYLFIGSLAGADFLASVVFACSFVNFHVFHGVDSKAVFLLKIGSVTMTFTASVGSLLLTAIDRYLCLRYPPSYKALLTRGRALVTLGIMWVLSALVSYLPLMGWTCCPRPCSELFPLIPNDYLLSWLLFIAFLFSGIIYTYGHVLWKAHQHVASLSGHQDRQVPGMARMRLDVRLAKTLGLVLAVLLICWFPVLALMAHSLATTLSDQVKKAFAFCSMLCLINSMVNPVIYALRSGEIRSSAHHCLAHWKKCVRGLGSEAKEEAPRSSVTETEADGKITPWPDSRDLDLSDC
In short: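 Membranes from CHO-DHFR(−) cells stably expressing human CB2 used for [3H]CP-55,940 binding; filter-bound radioactivity counted by scintillation after washes with 0.1% BSA buffer. Nonspecific binding defined with 2.0 μM CP-55,940; IC50 for inhibition of specific binding.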

[2] = molecular target: T2, human CB1 receptor (Homo sapiens, UniProt P21554); assay: Human CB1 receptor binding inhibition test; details: CHO-DHFR(−) cells stably expressing human CB1 receptor, same manner as Experimental Example 1
T2 construct: expressed in transfected cells
T2 sequence (P21554 whole entry): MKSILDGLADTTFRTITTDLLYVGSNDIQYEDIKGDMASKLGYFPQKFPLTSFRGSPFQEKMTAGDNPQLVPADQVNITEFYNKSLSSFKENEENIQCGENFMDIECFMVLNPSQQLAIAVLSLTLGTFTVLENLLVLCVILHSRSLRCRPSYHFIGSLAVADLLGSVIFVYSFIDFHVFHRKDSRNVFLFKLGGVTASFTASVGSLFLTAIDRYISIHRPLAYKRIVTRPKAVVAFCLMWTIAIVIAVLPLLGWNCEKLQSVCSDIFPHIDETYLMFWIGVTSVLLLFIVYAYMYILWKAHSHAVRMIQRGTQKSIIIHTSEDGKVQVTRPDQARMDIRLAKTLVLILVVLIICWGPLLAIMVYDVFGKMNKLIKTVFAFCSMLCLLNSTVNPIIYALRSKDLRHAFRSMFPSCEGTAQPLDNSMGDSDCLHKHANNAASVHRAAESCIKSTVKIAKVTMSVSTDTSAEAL
Description: Human CB1 Receptor Binding Inhibition Test
The CHO-DHFR(−) cells capable of stably expressing a CB1 receptor were prepared in the same manner as in Experimental Example 1. The binding test to the human CB1 receptor was performed to obtain 50% inhibitory concentration (IC50 value) of a test compound.

SMILES	melting point [°C]	IC50 [1] [nM]	IC50 [2] [nM]
COc1ccc(F)cc1C(=O)/N=c1\sc(C(C)(C)C)c(C)n1CC1CC1 [compound 262]	87 to 89	0.6	435
COc1cccc(F)c1C(=O)/N=c1\sc(C(C)(C)C)c(C)n1CC1CC1 [compound 263]	119 to 121	0.6	56
COc1cc(Cl)ccc1C(=O)/N=c1\sc(C(C)(C)C)c(C)n1CC1CC1 [compound 264]	163 to 165	1	181
COc1ccc(Cl)cc1C(=O)/N=c1\sc(C(C)(C)C)c(C)n1CC1CC1 [compound 265]	98 to 100	1	100
COc1ccc(C(=O)/N=c2\sc(C(C)(C)C)c(C)n2CC2CC2)c(OC)c1OC [compound 286]	88 to 89	12.7	435
Cc1c(C(C)(C)C)s/c(=N\C(=O)c2c(F)ccc(C(F)(F)F)c2F)n1CC1CC1 [compound 288]	109 to 111	0.2	49
Cc1c(C(C)(C)C)s/c(=N\C(=O)c2c(C(F)(F)F)ccc(Cl)c2F)n1CC1CC1 [compound 289]	182 to 183	0.5	136
Cc1ncccc1C(=O)/N=c1/sc(C(C)(C)C)c(C)n1CC1CC1 [compound 295]	–	12.3	497
Cc1ccnc(C)c1C(=O)/N=c1\sc(C(C)(C)C)c(C)n1CC1CC1 [compound 299]	156 to 157	2.8	28
Cc1c(C(C)(C)C)s/c(=N\C(=O)c2cccnc2Cl)n1CC1CC1 [compound 301]	124 to 125	2	191
Cc1c(C(C)(C)C)s/c(=N\C(=O)c2ncccc2Br)n1CC1CC1 [compound 304]	141 to 142	2.3	372
Cc1c(C(C)(C)C)s/c(=N\C(=O)c2nc(Cl)ccc2Cl)n1CC1CC1 [compound 306]	143 to 145	0.5	68
Cc1c(C(C)(C)C)s/c(=N\C(=O)c2c(Cl)cncc2Cl)n1CC1CC1 [compound 308]	260 to 261	3.6	336
Cc1c(C(C)(C)C)s/c(=N\C(=O)c2nccc3ccccc23)n1CC1CC1 [compound 324]	–	2	353
COCCn1c(C)c(C(C)(C)C)s/c1=N\C(=O)c1cc(Br)ccc1F [compound 348]	95 to 97	3.8	–
COCCn1c(C)c(C(C)(C)C)s/c1=N\C(=O)c1cc(F)c(Cl)cc1Cl [compound 349]	161 to 163	1.9	–
COCCn1c(C)c(C(C)(C)C)s/c1=N\C(=O)c1cccc(OC(F)(F)C(F)F)c1 [compound 350]	114 to 116	5.2	–
COCCn1c(C)c(C(C)(C)C)s/c1=N\C(=O)c1cc(F)ccc1C [compound 351]	106 to 107	2.2	–
Cc1c(Cl)s/c(=N\C(=O)c2cccc(C(F)(F)F)c2F)n1CC1CC1 [compound 365]	130 to 132	3.4	–
O=C(/N=c1\sc2ncccc2n1CC1CC1)c1cccc(C(F)(F)F)c1F [compound 382]	156 to 158	17	–
Cn1c(C(C)(C)C)c/c(=N\C(=O)c2cccc(Cl)c2Cl)n1CC1CCC1 [compound 481]	152.5 to 154	3.4	–
Cc1c(C(=O)/N=c2\cc(C(C)(C)C)n(C)n2CC2CCC2)cccc1C(F)(F)F [compound 483]	133 to 134	8.3	–
Cn1c(C(C)(C)C)c/c(=N\C(=O)c2cccc(Cl)c2Cl)n1CC1CCCC1 [compound 484]	168 to 169	2.7	–
CCOCCn1/c(=N/C(=O)c2cccc(C(F)(F)F)c2C)cc(C(C)(C)C)n1C [compound 489]	132 to 133	6	–
CC(C)OCCn1/c(=N/C(=O)c2cccc(Cl)c2Cl)cc(C(C)(C)C)n1C [compound 492]	–	5	265
Cc1c(C(=O)/N=c2\cc(C(C)(C)C)n(C)n2CCOC(C)C)cccc1C(F)(F)F [compound 494]	–	2.1	279
COc1ccc(C(F)(F)F)cc1C(=O)/N=c1\sc(C(C)(C)C)nn1CC1CC1 [compound 509]	82 to 83	5.9	–
CC(C)(C)c1nn(CC2CC2)/c(=N/C(=O)c2cccc(C(F)(F)F)c2F)o1 [compound 514]	108 to 110	2.6	–
